Columns and labels:
Assay type in all cases: cell-based
Coxsackie virus B3 = assay: in vitro inhibition of Coxsackie virus B3 replication; conditions: for SI against Coxsackie virus B3 replication: selectivity index, preliminary in vitro assay
[1] = test system: influenza virus A/Hanfang/359/95 (H3N2); assay: in vitro antiviral assay against influenza virus A/Hanfang/359/95; conditions: selectivity index, preliminary in vitro assay
[2] = test system: herpes simplex virus 1 (HSV-1); assay: in vitro antiviral assay against herpes simplex virus 1

SMILES	IC50 (Coxsackie virus B3; Enterovirus B, B3, read-out: IC50 against Coxsackie virus B3 replication) [nM]	SI against Coxsackie virus B3 replication (Coxsackie virus B3)	SI against influenza virus A/Hanfang/359/95 (H3N2) [1]	IC50 ([2]; Human alphaherpesvirus 1, read-out: IC50 against herpes simplex virus 1 (HSV-1)) [nM]	SI against herpes simplex virus 1 (HSV-1) ([2]; selectivity index, preliminary in vitro assay)
Cc1cc(CCCOc2c(C)cc(-c3noc(C(F)(F)F)n3)cc2C)on1 [Pleconaril]	410	243.9			
NC(=O)c1ncn([C@@H]2O[C@H](CO)[C@@H](O)[C@H]2O)n1 [RBV]		9.0	1200		
Nc1nc2c(ncn2COCCO)c(=O)[nH]1 [acyclovir]				710	140.9

From PMC6251858 (Acta Pharmaceutica Sinica. B, 2018)
